Read-outs that look alike come from different tables or passages of the source.
Tests used:
MAO [1] = assay: Inhibition of MAO - Ex vivo, mouse (14C p-tyramine substrate); format: in vivo; settings: 24 hr
Procedure: (§1) The ability of a compound of Formula I or II to inhibit MAO can be determined ex vivo by the following procedure:
The test compound is administered intraperitoneally (ip), intravenously (iv), or orally (po) to rats or mice and the animals are killed at various times after treatment. The brain, heart, liver, or duodenum is removed and either a crude homogenate or a mitochondrial fraction, described in Example 28, Part A, is prepared. MAO activity is determined in the homogenates using ^14 C p-tyramine, as the substrate. Table III gives the results of the testing of certain compounds according to the above-described procedure. Selectivity can be determined by repeating the above-described test using either ^14 C 5-hydroxytryptamine (for MAO-A) or ^14 C phenethylamine (for MAO-B) as the substrate for determining the % inhibition

MAO [2] = assay: Inhibition of MAO - In vivo: change in levels of endogenous MAO substrates and metabolites in mouse brain; design: species or system mice
Procedure: The ability of a compound of Formula I or II to inhibit MAO can be determined in vivo in mice according to the following procedure, wherein changes in concentration of the endogenous MAO substrates and the metabolites thereof are assayed.
Mice are given an intraperitoneal injection of the test compound and 2 hours or 16 hours later the animals are killed. The levels of dopamine, dihydroxyphenylacetic acid (DOPAC), 5-hydroxytryptamine (5-HT), and 5-hydroxyindole-3-acetic acid (5-HIAA) in brain homogenates are determined by the method of J. Wagner et al, J. Chromatog. 164, 41 (1979) and P. Bey et al, Br. J. Pharmac., 70, 571 (1980).

[3] = tested on: heart rate response to p-tyramine; assay: Cheese effect: potentiation of heart-rate response to p-tyramine in rats; settings: rat
Procedure: The following test procedure can be employed to assess the potential of a compound of Formula I or II for producing the "cheese effect":
Rats are administered an intravenous injection of the test compound at various dosage levels, and 30 minutes later the rats are challenged with several intravenous or intraduodenal dodes of p-tyramine. The heart rate response is measured.

MAO [4] = assay: Inhibition of MAO - Ex vivo, rat (14C p-tyramine substrate); format: in vivo; settings: for % Inhibition of MAO - Brain: 18 hr
Procedure: as §1
The test compound is administered intraperitoneally (ip), intravenously (iv), or orally (po) to rats or mice and the animals are killed at various times after treatment. […] MAO activity is determined in the homogenates using ^14 C p-tyramine, as the substrate. […] Selectivity can be determined by repeating the above-described test using either ^14 C 5-hydroxytryptamine (for MAO-A) or ^14 C phenethylamine (for MAO-B) as the substrate for determining the % inhibition

MAO [5] = assay: Inhibition of MAO - In vitro (14C p-tyramine substrate, partially purified rat brain mitochondria); format: biochemical; settings: tested as hydrochloride salt, read-out: IC50 (MAO inhibitory activity - In vitro)
Description: (A) The ability of a compound of Formula I or II to inhibit MAO can be determined in vitro by the method of A. Christmas et al, Br. J. Pharmacol. 45, 490 (1972) in partially purified mitochondria from rat brain using ^14 C p-tyramine as the substrate.

MAO-B versus MAO-A = assay: Selectivity of MAO inhibitors - In vitro (14C 5-hydroxytryptamine for MAO-A, 14C phenethylamine for MAO-B); format: biochemical, rat; settings: for Selectivity (ratio of inhibitory activity against MAO-B versus MAO-A): in vitro, rat brain mitochondria
Procedure: Mitochondria are prepared from rat brain by homogenation in phosphate buffer (0.1 M, pH 7.2) followed by differential centrifugation. The mitochondria are suspended in the same buffer, the test compound is added at the desired concentration, and the system is incubated. […] Christmas, et al, supra).
Selectivity is expressed as the ratio of the inhibitory activity against MAO-B versus the inhibitory activity against MAO-A.

MAO-A and MAO-B = settings: literature; cited from earlier work
depression = settings: literature; cited from earlier work
cheese effect = settings: low dosages; literature; cited from earlier work
Parkinson's disease = settings: literature; cited from earlier work

## NC/C(=C/F)c1ccccc1 [(E)-2-phenyl-3-fluoroallylamine, (E)-2-Phenyl-3-fluoroallylamine]
MAO [1]; 0.5 mg/kg ip
  % Inhibition of MAO - Brain: 45%
  % Inhibition of MAO - Heart: 91%
MAO [1]; 1.0 mg/kg ip
  % Inhibition of MAO - Brain: 68%
  % Inhibition of MAO - Heart: 97%
MAO [2]; 1 mg/kg ip, 2 hr
  % Change (compared to control) - 5-HIAA: -35%
  % Change (compared to control) - 5-HT: +41%
  % Change (compared to control) - DOPAC: -67%
  % Change (compared to control) - Dopamine: +15%
MAO [2]; 10 mg/kg ip, 2 hr
  % Change (compared to control) - 5-HIAA: -90%
  % Change (compared to control) - 5-HT: +90%
  % Change (compared to control) - DOPAC: -92%
  % Change (compared to control) - Dopamine: +32%
MAO [2]; 100 mg/kg ip, 2 hr
  % Change (compared to control) - 5-HIAA: -91%
  % Change (compared to control) - 5-HT: +96%
  % Change (compared to control) - DOPAC: -95%
  % Change (compared to control) - Dopamine: +19%
[3]; dose 0.1 (iv), p-tyramine i.d.
  Potentiation of heart-rate response to p-tyramine: 9.1 fold
[3]; dose 0.1 (iv), p-tyramine i.v.
  Potentiation of heart-rate response to p-tyramine: 8.4 fold
MAO [4]; 0.1 mg/kg iv, 24 hr
  % Inhibition of MAO - Duodenum: 67%
  % Inhibition of MAO - Heart: 85%
  % Inhibition of MAO - Liver: 48%
MAO [5]
  IC50: 700 nM
MAO-B versus MAO-A
  Selectivity (ratio of inhibitory activity against MAO-B versus MAO-A): 10

## COc1ccc(/C(=C\F)CN)cc1OC [(E)-2-(3',4'-Dimethoxy)phenyl-3-fluoroallylamine]
MAO [2]; 10 mg/kg ip, 16 hr
  % Change (compared to control) - 5-HIAA: -8%
  % Change (compared to control) - 5-HT: +31%
  % Change (compared to control) - DOPAC: -62%
  % Change (compared to control) - Dopamine: +18%
MAO [2]; 50 mg/kg ip, 16 hr
  % Change (compared to control) - 5-HIAA: -32%
  % Change (compared to control) - 5-HT: +122%
  % Change (compared to control) - DOPAC: -85%
  % Change (compared to control) - Dopamine: +22%
[3]; dose 1.0 (iv), p-tyramine i.d.
  Potentiation of heart-rate response to p-tyramine: 2.5 fold
[3]; dose 1.0 (iv), p-tyramine i.v.
  Potentiation of heart-rate response to p-tyramine: 2.3 fold
[3]; in vivo
  risk of producing the cheese effect (in words): significantly decreased risk
MAO [4]; 0.5 mg/kg po
  % Inhibition of MAO - Brain: 79%
MAO [4]; 1.0 mg/kg iv, 2 hr
  % Inhibition of MAO - Duodenum: 40%
  % Inhibition of MAO - Heart: 17%
  % Inhibition of MAO - Liver: 58%
MAO [4]; 10.0 mg/kg po
  % Inhibition of MAO - Brain: 93%
MAO [5]
  IC50: 2500 nM
MAO-B versus MAO-A
  selectivity for MAO-B as compared to MAO-A (in words): marked selectivity for MAO-B as compared to MAO-A
  Selectivity (ratio of inhibitory activity against MAO-B versus MAO-A): 1000
MAO-B versus MAO-A; listed as (E)-2-(3',4'-dimethoxyphenyl)-3-fluoroallylamine
  selectivity for MAO-B as compared to MAO-A (in words): selective inhibitors of MAO-B

## Cc1cc(C(=O)NNCc2ccccc2)no1 [isocarboxazid]
MAO-A and MAO-B
  preferential inhibition of MAO-A or MAO-B (in words): not preferential in their action upon MAO

## C#CCN(C)[C@H](C)Cc1ccccc1 [L-deprenyl, reference compound]
depression
  clinical effectiveness as antidepressant (in words): clinically effective antidepressant agents
MAO [2]; 10 mg/kg ip, 2 hr
  % Change (compared to control) - 5-HIAA: +9%
  % Change (compared to control) - 5-HT: +18%
  % Change (compared to control) - DOPAC: -21%
  % Change (compared to control) - Dopamine: +10%
[3]; dose 0.1 (iv), p-tyramine i.d.
  Potentiation of heart-rate response to p-tyramine: no effect
[3]; dose 0.1 (iv), p-tyramine i.v.
  Potentiation of heart-rate response to p-tyramine: 1.3 fold
[3]; dose 1.0 (iv), p-tyramine i.d.
  Potentiation of heart-rate response to p-tyramine: 2.1 fold
[3]; dose 1.0 (iv), p-tyramine i.v.
  Potentiation of heart-rate response to p-tyramine: 2.2 fold
Cheese effect
  cheese effect (in words): is not observed at the low dosages where preferential inhibition of MAO-B occurs
MAO [4]; 1.0 mg/kg po, 2 hr
  % Inhibition of MAO - Duodenum: 62%
  % Inhibition of MAO - Heart: 48%
Parkinson's disease
  potentiation of L-DOPA in Parkinson's disease (in words): potentiate L-DOPA for the treatment of Parkinson's disease without producing peripheral side effects

## N[C@@H]1C[C@H]1c1ccccc1 (relative stereo) [tranyclcypromine]
MAO-A and MAO-B
  preferential inhibition of MAO-A or MAO-B (in words): not preferential in their action upon MAO

## NNCCc1ccccc1 [phenelzine]
MAO-A and MAO-B
  preferential inhibition of MAO-A or MAO-B (in words): not preferential in their action upon MAO
